Reference: paper PMC12118337, “Development of a Peptide Inhibitor Targeting the C‐SH2 Domain of the SHP2 Phosphatase” (Chembiochem, 2025)
pKd: −log10 of the molar value. Residues, ends and D or L forms follow the SMILES beside them. *: point of attachment. 5FAM = O=C1OC2(c3ccc(O)cc3Oc3cc(O)ccc32)c2ccc(C(=O)*)cc21; X1 = O=C(O)C(C(=O)O)*

Target: T1, SHP2 N‐SH2 domain (Homo sapiens, UniProt Q06124)
T1 construct: SHP2 N-SH2 domain (1–105), C-SH2 domain (106–220), PTP domain (224–541) and; His6 (pETM22 vector) (N, cleaved yes); made in house; host or cells: E. coli BL21(DE3)
T1 sequence (Q06124 1-105): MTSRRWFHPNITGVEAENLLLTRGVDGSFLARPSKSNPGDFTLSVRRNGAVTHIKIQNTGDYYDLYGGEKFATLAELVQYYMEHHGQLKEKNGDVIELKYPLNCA
Experiment: Fluorescence polarization (FP) binding assay, SHP2 N-SH2 domain
Conditions: 100 nM FAM-labelled peptide, increasing N-SH2 protein, 50 mM HEPES pH 7.5, 150 mM NaCl, 1 mM EDTA, 0.05% Tween 20, FP at 10 min, three independent experiments in technical triplicates, read-out: K D ± SEM, N‐SH2 (FP)
Protocol: buffer and stored in 5 mL binding buffer at 4°C. His-tagged 3C protease (0.5 mg; EMBL) was added to the pooled eluted fractions and dialysed using Spectra Por Dialysis Tubing (MWCO 6-8 kDa, 23 mm; Spectrum Labs) in 1 L of binding buffer at 4°C for 3 hours, then overnight in fresh buffer. A new column was prepared by loading 2 mL Ni-NTA Agarose (Invitrogen) as a 50% slurry in EtOH. The column was washed with 10 mL H2O to remove the EtOH and equilibrated with 10 mL binding buffer. The protein/3C protease mixture was loaded onto the column and incubated for 1 hour at 4°C on a rocker. The flow through containing the protein was collected, the column was washed with 100 mL binding buffer and the 3C protease was eluted with 5 mL elution buffer. Protein purification was monitored by SDS-PAGE using NuPAGE 4-12% Bis-Tris Protein Gels (Invitrogen) run in MOPS buffer (50 mM MOPS, 50 mM Tris-HCl pH 7.7, 1 mM EDTA, 0.1% SDS) followed by Coomassie staining using Coomassie Brilliant Blue (Roth). The purified protein was dialysed into the final storage buffer (50 mM HEPES pH 7.5, 150 mM NaCl, 2 mM DTT, 20% glycerol). Aliquots were prepared and stored at -80°C until required. […]
4. Fluorescence polarization
Fluorescence polarization (FP) was used to measure the binding of FAM-labelled peptides to the SHP2 C-SH2, SHP2 N-SH2, SHP2 PTP, CSK SH2 or Src SH2 domains. Each peptide was added to increasing concentrations of SHP2 C-SH2, SHP2 N-SH2, SHP2 PTP, CSK SH2 or Src SH2 protein in FP buffer (50 mM HEPES pH 7.5, 150 mM NaCl, 1 mM EDTA, 0.05% Tween 20) to give a final peptide […]
concentration of 100 nM in a final volume of 200 µL. For baseline subtraction, each peptide was added to FP buffer, instead of protein, with a final peptide concentration of 100 nM in a final volume of 200 µL. Samples were mixed gently then 3 x 60 µL of each sample was transferred into triplicate wells in a 96-well plate (OptiPlate-96 F Black; PerkinElmer). The FP was immediately measured on a Synergy H1 Microplate Reader (BioTek) with the excitation and emission monitored at 485 nm and 528 nm, respectively, over 30 minutes. FP values were automatically calculated by the Gen5 3.03 (BioTek) software associated with the microplate reader. Data were analysed in Excel 2016 by subtracting baseline values from FP values at 10 minutes. Data were then further analysed in GraphPad Prism 6 by plotting the baseline subtracted FP values against the protein concentration and fitting the data to a variable slope model of non-linear regression to obtain the KD values. Data are from three independent experiments, each performed in technical triplicates.
5. Isothermal titration calorimetry […]
Analysis Software (Malvern Panalytical). For the data analysis, a 1:1 binding stoichiometry between the Ac-ITSM(pTyr) and SH2 domain was assumed. ITC measurements were performed once.

## CC[C@H](C)[C@H](NC(=O)[C@@H](NC(=O)[C@H](C)NC(=O)[C@H](Cc1ccc(OC(C(=O)O)C(=O)O)cc1)NC(=O)[C@H](CCC(=O)O)NC(=O)[C@@H](NC(=O)[C@H](CCC(N)=O)NC(=O)c1ccc2c(c1)C(=O)OC21c2ccc(O)cc2Oc2cc(O)ccc21)[C@@H](C)O)[C@@H](C)O)C(=O)N[C@@H](CCCCN)C(=O)N[C@@H](Cc1c[nH]cn1)C(=O)N1CCC[C@H]1C(N)=O [peptide 26] (5FAM-QTEY(X1)ATIKHP-NH2)
  pKd: < 4.49
